Experimental data: patent publication US20220135539A1, “BIARYL AMIDE COMPOUNDS, PREPARATION METHODS AND MEDICAL APPLICATIONS THEREOF” (Eternity Bioscience Inc., priority 2020, published 2022)

What was measured:
human recombinant BRAF = target: T1, human recombinant BRAF (Homo sapiens, UniProt P15056); assay: BRAF^WT Inhibition Assay (TR-FRET); type: biochemical
T1 construct: purchased BPS Bioscience 40065
Method: (§1) Activity of human recombinant BRAF were assessed in vitro using time-resolved fluorescence resonance energy transfer (TR-FRET) assay. The assay was performed according to the kit instructions. Briefly, the BRAF enzyme (BPS Bioscience, cat #40065) was diluted to 0.027 ng/μL using the 1× kinase buffer A (Life Tech, cat #PV6135, 5× dilution with H2O); the Fluorescein labeled-MAP2K1 (Life Tech, Cat #PV4812) was diluted to 0.5 μM; ATP (Life Tech, cat #PV3227) was diluted to 20 μM; 2.54, of each diluted reagent was added to a 384-well plate (PerkinElmer, ProxiPlate-384 Plus, 6008280) and mixed together; 2.54, serial diluted compound were added into the mixture. 104, 400-fold diluted LanthaScreen Tb-pMAP2K1 (pSer217/221) antibody (Life Tech, cat #PV4817) was then added to each kinase reaction. The reactions were incubated at Room Temperature for 1 hour. The plate was then read on PHERAstar FSX using 340/490/520 module. Inhibition data were calculated by comparison to vehicle control wells for 0% inhibition and non-stimulated control wells for 100% inhibition. Dose response curves were then generated to determine the concentration required to suppress 50% of enzymatic response (IC50) as derived by non-linear regression analysis using GraphPad Prism.

[1] = target: T2, human recombinant V600E mutant BRAF (Homo sapiens, UniProt P15056, V600E); assay: BRAF^V600E Inhibition Assay (TR-FRET); type: biochemical
T2 construct: purchased BPS Bioscience 40533
Method: Activity of human recombinant V600E mutant BRAF were assessed in vitro using time-resolved fluorescence resonance energy transfer (TR-FRET) assay. The assay was performed according to the kit instructions. Briefly, the V600E mutant BRAF enzyme (BPS Bioscience, cat #40533) was diluted to 0.027 ng/μL using the 1× kinase buffer A (Life Tech, cat #PV6135, 5× dilution with H2O); the Fluorescein labeled-MAP2K1 (Life Tech, Cat #PV4812) was diluted to 0.5 μM; ATP (Life Tech, cat #PV3227) was diluted to 20 μM; 2.5 μl of each diluted reagent was added to a 384-well (PerkinElmer, ProxiPlate-384 Plus, 6008280) plate and mixed together; 2.54, serial diluted compounds were added into the mixture. 104, 400-fold diluted LanthaScreen Tb-pMAP2K1 (pSer217/221) antibody (Life Tech, cat #PV4817) was then added to each kinase reaction. The reactions were incubated at Room Temperature for 1 hour. The plate was then read on PHERAstar FSX using 340/490/520 module. Inhibition data were calculated by comparison to vehicle control wells for 0% inhibition and non-stimulated control wells for 100% inhibition. Dose response curves were then generated to determine the concentration required to suppress 50% of enzymatic response (IC50) as derived by non-linear regression analysis using GraphPad Prism.

human recombinant cRAF = human recombinant cRAF (Homo sapiens, UniProt P04049); assay: cRAF Inhibition Assay (TR-FRET); type: biochemical
Method: as §1, with “cRAF” for “BRAF”, “#40008)” for “#40065)”

[2] = system: NCI-H358 (KRAS^G12C) non-small cell lung cancer cell; assay: NCI-H358 Cancer Cell Growth Inhibition Assay (CellTiter-Glo); type: cell-based, human; settings: for GI50: Homo sapiens, 72 h, NCI-H358 cells, incubated for 3 days, CellTiter-Glo
Method: Activity of human NCI-H358 (KRAS^G12C) non-small cell lung cancer cell growth inhibition was assessed in vitro using CellTiter-Glo® Luminescent Cell Viability Assay. The assay was performed according to the kit instructions (Promega, cat #G7570). Briefly, NCI-H358 cells (ATCC, #CRL-5807) were seeded in 96-well plates at a density of 2,500 cells/well in and cells were cultured overnight in a humidified, 5% CO2 cell culture incubator at 37° C. 10 μL serial diluted compounds were added into each cell-culture well and incubated for 3 days. 100 μL CellTiter-Glo® Reagent was added into each well. The reactions were incubated at Room Temperature for 10 minutes, and luminescence signals were recorded on a Tecan Luminescence Plate Reader. Inhibition data were calculated by comparison to vehicle control wells for 0% inhibition and non-stimulated control wells for 100% inhibition. Dose response curves were then generated to determine the concentration required to suppress 50% of cellular growth response (GI50) as derived by non-linear regression analysis using GraphPad Prism.

T2 sequence (P15056 whole entry V600E): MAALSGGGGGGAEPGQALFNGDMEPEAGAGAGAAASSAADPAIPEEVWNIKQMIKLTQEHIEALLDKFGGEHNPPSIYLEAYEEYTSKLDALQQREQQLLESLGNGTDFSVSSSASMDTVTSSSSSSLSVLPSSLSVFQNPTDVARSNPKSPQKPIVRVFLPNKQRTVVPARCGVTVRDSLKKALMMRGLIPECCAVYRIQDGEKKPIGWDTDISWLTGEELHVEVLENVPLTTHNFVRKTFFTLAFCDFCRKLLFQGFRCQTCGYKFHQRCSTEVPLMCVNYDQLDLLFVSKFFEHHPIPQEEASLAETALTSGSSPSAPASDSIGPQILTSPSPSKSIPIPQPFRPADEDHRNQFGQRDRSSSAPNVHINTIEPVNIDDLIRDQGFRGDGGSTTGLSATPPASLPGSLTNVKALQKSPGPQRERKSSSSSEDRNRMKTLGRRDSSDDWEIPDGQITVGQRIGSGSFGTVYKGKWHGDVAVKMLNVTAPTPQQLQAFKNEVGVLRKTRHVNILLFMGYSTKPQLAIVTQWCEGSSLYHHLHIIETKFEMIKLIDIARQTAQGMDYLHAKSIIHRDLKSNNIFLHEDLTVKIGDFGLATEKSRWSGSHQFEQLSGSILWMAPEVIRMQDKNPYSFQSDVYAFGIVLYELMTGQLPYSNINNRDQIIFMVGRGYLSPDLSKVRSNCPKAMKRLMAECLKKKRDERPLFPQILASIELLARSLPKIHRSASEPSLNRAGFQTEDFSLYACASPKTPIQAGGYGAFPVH
human recombinant cRAF, sequence (P04049 whole entry Y340D/Y341D, form open): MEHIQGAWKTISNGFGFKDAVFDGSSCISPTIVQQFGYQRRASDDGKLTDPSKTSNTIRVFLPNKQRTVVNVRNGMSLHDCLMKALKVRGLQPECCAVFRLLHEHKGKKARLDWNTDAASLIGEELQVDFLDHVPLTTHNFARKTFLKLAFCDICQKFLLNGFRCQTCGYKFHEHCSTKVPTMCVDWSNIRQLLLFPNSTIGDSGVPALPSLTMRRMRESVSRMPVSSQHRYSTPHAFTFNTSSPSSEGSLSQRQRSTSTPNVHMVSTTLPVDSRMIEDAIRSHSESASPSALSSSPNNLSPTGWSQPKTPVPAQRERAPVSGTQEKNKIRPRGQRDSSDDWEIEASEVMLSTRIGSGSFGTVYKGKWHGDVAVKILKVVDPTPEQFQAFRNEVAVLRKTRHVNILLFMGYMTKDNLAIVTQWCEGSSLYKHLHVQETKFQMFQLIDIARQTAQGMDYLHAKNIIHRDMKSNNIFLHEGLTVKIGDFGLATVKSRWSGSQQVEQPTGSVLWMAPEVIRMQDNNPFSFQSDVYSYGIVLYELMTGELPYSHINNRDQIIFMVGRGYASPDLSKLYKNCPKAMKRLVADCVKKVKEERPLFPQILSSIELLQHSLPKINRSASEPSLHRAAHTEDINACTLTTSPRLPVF
T1 sequence (P15056 whole entry): as the sequence (P15056 whole entry V600E) above, with E600V counted along it

## Cc1ccc(NC(=O)c2ccc3c(c2)OCO3)cc1-c1cc(OCCO)nc(N2CCOCC2)c1 [Example 9, N-(3-(2-(2-hydroxyethoxy)-6-morpholinopyridin-4-yl)-4-methylphenyl)benzo[d][1,3]dioxole-5-carboxamide]
Human recombinant BRAF
  IC50: 42 nM
[1]
  IC50: 18 nM
Human recombinant cRAF
  IC50: 6.7 nM
[2]
  cell growth inhibition in H358 cancer line compared to LXH254: better or similar cell growth inhibition
  GI50: 1600 nM

## Cc1ccc(NC(=O)c2ccc3c(c2)C(F)(F)CC3)cc1-c1cc(OCCO)nc(N2CCOCC2)c1 [Example 3, 3,3-difluoro-N-(3-(2-(2-hydroxyethoxy)-6-morpholinopyridin-4-yl)-4-methylphenyl)-2,3-dihydro-1H-indene-5-carboxamide]
Human recombinant BRAF
  IC50: 170 nM
[1]
  IC50: 88 nM
Human recombinant cRAF
  IC50: 27 nM

## Cc1ccc(NC(=O)c2ccc3c(c2)CCC3(F)F)cc1-c1cc(OCCO)nc(N2CCOCC2)c1 [Example 5, 1,1-difluoro-N-(3-(2-(2-hydroxyethoxy)-6-morpholinopyridin-4-yl)-4-methylphenyl)-2,3-dihydro-1H-indene-5-carboxamide]
Human recombinant BRAF
  IC50: 92 nM
[1]
  IC50: 65 nM
Human recombinant cRAF
  IC50: 39 nM

## Cc1ccc(NC(=O)c2ccc3c(c2)C(F)(F)CO3)cc1-c1cc(OCCO)nc(N2CCOCC2)c1 [Example 4, 3,3-difluoro-N-(3-(2-(2-hydroxyethoxy)-6-morpholinopyridin-4-yl)-4-methylphenyl)-2,3-dihydrobenzofuran-5-carboxamide]
Human recombinant BRAF
  IC50: 260 nM
[1]
  IC50: 96 nM
Human recombinant cRAF
  IC50: 51 nM

## Cc1ncc(NC(=O)c2ccc3c(c2)OC(F)(F)O3)cc1-c1cc(OCCO)nc(N2CCOCC2)c1 [Example 11, 2,2-difluoro-N-(2′-(2-hydroxyethoxy)-2-methyl-6′-morpholino-[3,4′-bipyridin]-5-yl)benzo[d][1,3]dioxole-5-carboxamide]
Human recombinant BRAF
  IC50: 70 nM
[1]
  IC50: 39 nM
Human recombinant cRAF
  IC50: 10 nM

## Cc1ccc(NC(=O)c2cnc3c(c2)C(F)(F)CC3)cc1-c1cc(OCCO)nc(N2CCOCC2)c1 [Example 7, 5,5-difluoro-N-(3-(2-(2-hydroxyethoxy)-6-morpholinopyridin-4-yl)-4-methylphenyl)-6,7-dihydro-5H-cyclopenta[b]pyridine-3-carboxamide]
Human recombinant BRAF
  IC50: 46 nM
[1]
  IC50: 18 nM
Human recombinant cRAF
  IC50: 10 nM
[2]
  cell growth inhibition in H358 cancer line compared to LXH254: better or similar cell growth inhibition
  GI50: 2800 nM

## Cc1ccc(NC(=O)c2ccc3c(c2)OC(C)(C)O3)cc1-c1cc(OCCO)nc(N2CCOCC2)c1 [Example 8, N-(3-(2-(2-hydroxyethoxy)-6-morpholinopyridin-4-yl)-4-methylphenyl)-2,2-dimethylbenzo[d][1,3]dioxole-5-carboxamide]
Human recombinant BRAF
  IC50: 140 nM
[1]
  IC50: 62 nM
Human recombinant cRAF
  IC50: 25 nM
[2]
  cell growth inhibition in H358 cancer line compared to LXH254: better or similar cell growth inhibition
  GI50: 220 nM

## Cc1ccc(NC(=O)c2ccc3c(c2)CC3)cc1-c1cc(OCCO)nc(N2CCOCC2)c1 [Example 2, N-(3-(2-(2-hydroxyethoxy)-6-morpholinopyridin-4-yl)-4-methylphenyl)bicyclo[4.2.0]octa-1(6),2,4-triene-3-carboxamide]
Human recombinant BRAF
  IC50: 38.5 nM
[1]
  IC50: 18 nM
Human recombinant cRAF
  IC50: 7.9 nM

## Cc1ccc(NC(=O)c2ccc3c(c2)OCCO3)cc1-c1cc(OCCO)nc(N2CCOCC2)c1 [Example 13, N-(3-(2-(2-hydroxyethoxy)-6-morpholinopyridin-4-yl)-4-methylphenyl)-2,3-dihydrobenzo[b][1,4]dioxine-6-carboxamide]
Human recombinant BRAF
  IC50: 31 nM
[1]
  IC50: 13 nM
Human recombinant cRAF
  IC50: 4.7 nM
[2]
  cell growth inhibition in H358 cancer line compared to LXH254: better or similar cell growth inhibition
  GI50: 1200 nM

## Cc1ccc(NC(=O)c2cnc3c(c2)CCC3(F)F)cc1-c1cc(OCCO)nc(N2CCOCC2)c1 [Example 6, 7,7-difluoro-N-(3-(2-(2-hydroxyethoxy)-6-morpholinopyridin-4-yl)-4-methylphenyl)-6,7-dihydro-5H-cyclopenta[b]pyridine-3-carboxamide]
Human recombinant BRAF
  IC50: 26 nM
[1]
  IC50: 8.4 nM
Human recombinant cRAF
  IC50: 3.9 nM

## Cc1ccc(NC(=O)c2cc3c(cn2)OC(F)(F)O3)cc1-c1cc(OCCO)nc(N2CCOCC2)c1 [Example 10, 2,2-difluoro-N-(3-(2-(2-hydroxyethoxy)-6-morpholinopyridin-4-yl)-4-methylphenyl)-[1,3]dioxolo[4,5-c]pyridine-6-carboxamide]
Human recombinant BRAF
  IC50: 95 nM
[1]
  IC50: 55 nM
Human recombinant cRAF
  IC50: 25 nM
[2]
  cell growth inhibition in H358 cancer line compared to LXH254: better or similar cell growth inhibition
  GI50: 85 nM
